{
  "source": "patent US20240197716A1",
  "about": "“TREATMENTS FOR CUSHING'S SYNDROME THAT DO NOT SIGNIFICANTLY AFFECT CARDIAC RHYTHMS” (Corcept Therapeutics Incorporated, priority 2022, published 2024)",
  "key": {"[1]": {"test_system": "cardiac repolarization in healthy volunteers", "assay": "Thorough QT/QTc (TQT) study (NCT04795479), cardiodynamic Holter ECG", "conditions": "for ΔΔQTcF Estimate (msec) (90% CI), predicted at geometric mean Cmax: PK/QTc population", "description": "These studies included a randomized, partial double-blind, placebo- and positive-controlled, multiple-dose, 4-way crossover, thorough QT/QTc (TQT) study to investigate the effect of relacorilant on cardiac repolarization. These studies measured placebo-corrected change-from-baseline QTcF (ΔΔQTcF); change-from-baseline of QTcF, HR, and PR and QRS intervals (ΔQTcF, ΔHR, ΔPR, and ΔQRS); placebo-corrected change-from-baseline of HR, and PR and QRS intervals (ΔΔHR, ΔΔPR, and ΔΔQRS); categorical outliers for QTcF, HR, and PR and QRS intervals; the frequency of treatment-emergent changes of T-wave morphology and presence of U-waves; PK parameters of relacorilant and its metabolites (CORT125337, CORT125336, and CORT125295) and moxifloxacin; safety profiles, including AEs/SAEs, physical examination, clinical chemistry, hematology, urinalysis, ECG, and vital signs.\nA phase 1, randomized, partial double-blind, crossover thorough QT study (NCT04795479) to assess the effect of multiple doses of relacorilant on cardiac repolarization in healthy volunteers. Participants were randomized to dosing sequences to receive relacorilant at therapeutic (400 mg QD, n=25) or supra-therapeutic (800 mg QD, n=28) doses, or placebo (n=29) for 5 days. Moxifloxacin (400 mg single dose, n=28) was used as a positive control.\nEach subject received 4 treatments in a randomized sequence during the study period. Each dosing consisted of 8 capsules (except for moxifloxacin on Day 5), including: • Treatment T: Multiple oral doses of 400 mg relacorilant (4 capsules)+placebo for relacorilant (4 capsules) once daily for 5 days; • Treatment ST: Multiple oral doses of 800 mg relacorilant (8 capsules) once daily for 5 days; • Treatment P: Multiple oral doses of placebo for relacorilant (8 capsules) once daily for 5 days; • Treatment M: Multiple oral doses of placebo for relacorilant (8 capsules) once daily for 4 days and a final single oral dose of 400 mg moxifloxacin (one tablet) on Day 5.\nIn a portion of present study conducted in healthy subjects, a single dose of moxifloxacin (400 mg; Treatment M) on the last day of its respective treatment period was included as a positive control to determine the sensitivity of the study to detect small QTc changes. Relacorilant doses included both a therapeutic dose level (400 mg; Treatment T) and a supra-therapeutic dose level (800 mg; Treatment ST). The study was blinded to subjects, investigator, study staff, and sponsor with respect to relacorilant (Treatments T and ST) and placebo for relacorilant (Treatment P); it was open-labeled for moxifloxacin (Treatment M). Enrolled subjects were randomized to one of twelve (12) dosing sequences to receive 4 different treatments according to the assigned dosing sequence as shown below:\nIn each period, subjects were admitted to the clinical site in the morning of Day-1 and stayed in the site until the morning of Day 6. In the study periods when subjects were randomized to Treatment T, ST, or P, the applicable study product (400 mg or 800 mg relacorilant or placebo for relacorilant) were taken once daily in the morning for 5 consecutive days. During the dosing period of positive control (Treatment M), placebo for relacorilant were administered on Days 1 to 4 to align with the dosing schedule for the other three treatments and moxifloxacin were administered in an open-labeled manner as a single dose in the morning of Day 5. Therefore, the treatment on Days 1 to 4 were double-blinded; it was not known before the morning on Day 5 whether or not a subject was allocated to receive moxifloxacin. Each dosing period (from Periods 2 to 4) was separated from the previous period by a washout period of at least 10 days from Day 6 of the previous period to Day 1 (first dose) of the subsequent period to prevent a carryover effect. The final visit was on Day 6 of Period 4. A safety phone follow-up was scheduled at 7 days (±2 days) post the final visit/early termination (ET) visit."}, "[2]": {"test_system": "patients with CS", "assay": "Phase 2 CS study (NCT02804750), ECG / QTcF", "assay_type": "in vivo, human", "experimental": "A single-arm, open-label phase 2 study (NCT02804750) in patients with CS. 17 patients received low-dose relacorilant (100-200 mg QD) for 12 weeks; 18 patients received high-dose relacorilant (250-400 mg QD) for 16 weeks.\nIn all studies, ECG data were collected and the heart rate-corrected QT interval using Fridericia's formula (QTcF) was calculated. Participants with a family history of or risk factors for torsades de pointes or with a prolonged QT interval at screening were not eligible to participate. Exposure-response analysis of the effect of relacorilant on the heart-rate corrected QT interval (QTc) was conducted using a linear model with an intercept.\nIn a 3-part, single-center, First-in-Human study (NCT03508635, “phase 1 study”), 103 healthy volunteers received single or multiple ascending doses of relacorilant (up to 500 mg QD) for up to 14 days; 24 received placebo. In a randomized, partial double-blind, crossover Thorough QT study (NCT04795479, “TQT study”), the effect of multiple therapeutic (400 mg QD, n=25) and supra-therapeutic (800 mg QD, n=28) doses of relacorilant on cardiac repolarization was studied in healthy volunteers. A single dose of moxifloxacin (400 mg, n=28) was used as a positive control; 29 participants received placebo. In a single-arm, open-label phase 2 study (NCT02804750, “CS study”), 17 patients with CS received low-dose relacorilant (100-200 mg QD) for 12 weeks and 18 patients received high-dose relacorilant (250-400 mg QD) for 16 weeks. In all studies, ECG data were collected, and the heart rate-corrected QT interval using Fridericia's formula (QTcF) was assessed."}, "[3]": {"assay": "Effect of food on relacorilant Cmax", "assay_type": "in vivo"}, "[4]": {"conditions": "human, in vivo", "experimental": "A phase 1, 3-part, single-center, First-in-Human study (NCT03508635) included 103 healthy volunteers who received single or multiple ascending doses (SAD/MAD) of relacorilant (up to 500 mg QD) for up to 14 days; 24 received placebo.\nRelacorilant plasma concentration and QTcF data in the SAD and MAD phases were best fit with a linear model with treatment-specific intercepts. For both phases, the model-estimated slopes (90% CI) were slightly negative (SAD: −0.59[−2.14, 0.97]×10^−3 msec/ng/ml; MAD: −2.34[−3.16 to −1.52]×10^−3 msec/ng/ml). Therefore, a concentration-dependent effect of relacorilant on QTc prolongation was not identified."}},
  "note": "“And” between values parts separate entries of the source, which are not always exact repeats. Equal values may be shown once.",
  "data": [
    {"compound": "Cn1cc(S(=O)(=O)N2CCC3=Cc4c(cnn4-c4ccc(F)cc4)C[C@]3(C(=O)c3cc(C(F)(F)F)ccn3)C2)cn1", "note": "[relacorilant, ((R)-(1-(4-fluorophenyl)-6-((1-methyl-1H-pyrazol-4-yl)sulfonyl)-4,4a,5,6,7,8-hexahydro-1H-pyrazolo[3,4-g]isoquinolin-4a-yl)(4-(trifluoromethyl)pyridine-2-yl)methanone)]", "values": [
      {"measurement": "ΔΔQTcF Estimate (msec) (90% CI), predicted at geometric mean Cmax", "setting": "[1]; 400 mg (Day 5)", "result": -3.02, "unit": "ms"},
      {"measurement": "ΔΔQTcF Estimate (msec) (90% CI), predicted at geometric mean Cmax", "setting": "[1]; 400 mg (Day 5), listed as Relacorilant", "result": "−3.02 (−4.16, −1.88)^1 msec"},
      {"measurement": "effect on HR", "setting": "[1]; 400 mg and 800 mg QD", "result": "did not have a clinically relevant effect on HR"},
      {"measurement": "ΔΔQTcF Estimate (msec) (90% CI), predicted at geometric mean Cmax", "setting": "[1]; 800 mg (Day 5)", "result": -3.87, "unit": "ms"},
      {"measurement": "ΔΔQTcF Estimate (msec) (90% CI), predicted at geometric mean Cmax", "setting": "[1]; 800 mg (Day 5), listed as Relacorilant", "result": "−3.87 (−5.56, −2.17)^1 msec"},
      {"measurement": "LS mean placebo-corrected ΔHR, highest across post-dose time points", "setting": "[1]; 2 hours post-dose on Day 5, 800 mg treatment", "result": 2.4, "unit": "bpm"},
      {"measurement": "LS mean placebo-corrected ΔHR, lowest across post-dose time points", "setting": "[1]; 12 hours post-dose on Day 1, 800 mg treatment", "result": "−3.2", "unit": "bpm"},
      {"measurement": "tolerability", "setting": "[1]; Across all 3 studies (First-in-Human, TQT, and CS studies)", "result": "well tolerated"},
      {"measurement": "effect on ΔΔQTcF exceeding the 10-msec threshold", "setting": "[1]; concentration-QTc modeling, plasma concentrations up to ˜4500 ng/mL", "result": "excluded"},
      {"measurement": "estimated slope (90% CI) of plasma concentration in the concentration-QTc relationship", "setting": "[1]; linear mixed-effects model", "result": "−0.97(−1.68, −0.25) ×10^−3 msec/ng/ml and −0.97 ×10^−3 msec/ng/ml"},
      {"measurement": "effect on ECG parameters", "setting": "[1]; therapeutic (400 mg) and supra-therapeutic (800 mg) doses", "result": "no adverse effects on ECG parameters"},
      {"measurement": "hypokalemia", "setting": "[2]; CS study", "result": "no instances"},
      {"measurement": "abnormal sinus tachycardia, post-baseline ECG finding", "setting": "[2]; high-dose group", "result": 11.1, "unit": "%"},
      {"measurement": "abnormal sinus tachycardia, post-baseline ECG finding", "setting": "[2]; high-dose group (18 patients)", "result": 2, "unit": "patients"},
      {"measurement": "change in median QTcF", "setting": "[2]; high-dose group, 250 to 400 mg/day, FIG. 6B", "result": "No significant changes"},
      {"measurement": "abnormal sinus tachycardia, post-baseline ECG finding", "setting": "[2]; low-dose group", "result": 17.6, "unit": "%"},
      {"measurement": "abnormal sinus tachycardia, post-baseline ECG finding", "setting": "[2]; low-dose group (17 patients)", "result": 3, "unit": "patients"},
      {"measurement": "change in median QTcF", "setting": "[2]; low-dose group, 100 to 200 mg/day, FIG. 6A", "result": "No significant changes"},
      {"measurement": "increase of Cmax relative to fasting conditions", "setting": "[3]; high-fat breakfast", "result": "approximately 34%"},
      {"measurement": "increase of Cmax relative to fasting conditions", "setting": "[3]; moderate-fat breakfast", "result": "~41", "unit": "%"},
      {"measurement": "observed range of plasma concentrations, upper end", "setting": "[4]", "result": "approximately 4000 ng/ml"},
      {"measurement": "time of Cmax", "setting": "[4]", "result": 2, "unit": "h"}
    ]}
  ]
}
